Measured values reported in patent US10597388B2, “Pyridazinone herbicides” (FMC CORPORATION, priority 2014, dated 2020).

Legend:
Assay in all cases: Test D controlled growth environment herbicide test, pre- and postemergence
Format in all cases: in vivo
[1] = system: barley, spring (spring barley, Hordeum vulgare)
Source text: (§1) Seeds of plant species selected from bluegrass (annual bluegrass, Poa annua), blackgrass (Alopecurus myosuroides), Canada thistle (Cirsium arvense), canarygrass (Phalaris minor), chickweed (common chickweed, Stellaria media), geranium, cutleaf (cutleaf geranium, Geranium dissectum), galium (catchweed bedstraw, Galium aparine), bromegrass, downy (downy bromegrass, Bromus tectorum), field poppy (Papaver rhoeas), field violet (Viola arvensis), foxtail, green (green foxtail, Setaria viridis), deadnettle (henbit deadnettle, Lamium amplexicaule), ryegrass, Italian (Italian ryegrass, Lolium multiflorum), kochia (Kochia scoparia), lambsquarters (Chenopodium album), oilseed rape (Brassica napus), pigweed (Amaranthus retroflexus), chamomile (scentless chamomile, Matricaria inodora), Russian thistle (Salsola kali), speedwell (bird's-eye speedwell, Veronica persica), barley, spring (spring barley, Hordeum vulgare), wheat, spring (spring wheat, Triticum aestivum), buckwheat, wild (wild buckwheat, Polygonum convolvulus), mustard, wild (wild mustard, Sinapis arvensis), oat, wild (wild oat, Avena fatua), radish, wild (wild radish, Raphanus raphanistrum), windgrass (Apera spica-venti), barley, winter (winter barley, Hordeum vulgare), and wheat, winter (winter wheat, Triticum aestivum) were planted into a silt loam soil and treated preemergence with test chemicals formulated in a non-phytotoxic solvent mixture which included a surfactant.
(§2) At the same time, these species were planted in pots containing Redi-Earth® planting medium (Scotts Company, 14111 Scottslawn Road, Marysville, Ohio 43041) comprising spaghnum peat moss, vermiculite, wetting agent and starter nutrients and treated with postemergence applications of the test chemicals formulated in the same manner. Plants ranged in height from 2 to 18 cm (1- to 4-leaf stage). Treated plants and controls were maintained in a controlled growth environment for 14 to 21 d after which time all species were compared to controls and visually evaluated. Plant response ratings, summarized in Table D, are based on a scale of 0 to 100 where 0 is no effect and 100 is complete control. A dash (-) response means no test result.

[2] = system: barley, winter (winter barley, Hordeum vulgare)
Source text: as §1, §2

[3] = system: blackgrass (Alopecurus myosuroides)
Source text: as §1, §2

[4] = system: bromegrass, downy (downy bromegrass, Bromus tectorum)
Source text: as §1, §2

[5] = system: chamomile (scentless chamomile, Matricaria inodora)
Source text: as §1, §2

[6] = system: chickweed (common chickweed, Stellaria media)
Source text: as §1, §2

[7] = system: deadnettle (henbit deadnettle, Lamium amplexicaule)
Source text: as §1, §2

[8] = system: field poppy (Papaver rhoeas)
Source text: as §1, §2

[9] = system: foxtail, green (green foxtail, Setaria viridis)
Source text: as §1, §2

[10] = system: lambsquarters (Chenopodium album)
Source text: as §1, §2

[11] = system: ryegrass, Italian (Italian ryegrass, Lolium multiflorum)
Source text: as §1, §2

[12] = system: wheat, spring (spring wheat, Triticum aestivum)
Source text: as §1, §2

[13] = system: wheat, winter (winter wheat, Triticum aestivum)
Source text: as §1, §2

[14] = Postemergence, 31 g ai/ha, scale 0 to 100 (0 no effect, 100 complete control)
[15] = Postemergence, 125 g ai/ha, visual rating on scale 0 (no effect) to 100 (complete control), 14 to 21 d
[16] = Postemergence, 250 g ai/ha, scale 0 to 100 (0 no effect, 100 complete control)
[17] = Preemergence, 62 g ai/ha, scale 0 to 100 (0 no effect, 100 complete control)
[18] = Preemergence, 125 g ai/ha, scale 0 to 100 (0 no effect, 100 complete control)
[19] = Preemergence, 250 g ai/ha, scale 0 to 100 (0 no effect, 100 complete control)
[20] = postemergence, 62 g ai/ha, scale 0 to 100, 0 no effect, 100 complete control

Cc1ccc2sc(C)c(-c3c(O)c(C)nn(C)c3=O)c2c1 [Compound 1, 4-(2,5-dimethylbenzo[b]thien-3-yl)-5-hydroxy-2,6-dimethyl-3(2H)-pyridazinone]
Plant response rating, Barley, Spring [1, 14]: 0 | Plant response rating, Barley, Spring [1, 15]: 5 | Plant response rating, Barley, Spring [1, 16]: 10 | Plant response rating (scale of 0 to 100), Barley, Spring ([1]; Preemergence, 31 g ai/ha): 0 | Plant response rating, Barley, Spring [1, 17]: 0 | Plant response rating, Barley, Spring [1, 18]: 10 | Barley, Spring plant response rating [1, 19]: 15 | Plant response rating, Barley, Spring [1, 20]: 5 | Plant response rating, Barley, Winter [2, 14]: 5 | Plant response rating, Barley, Winter [2, 15]: 5 | Plant response rating, Barley, Winter [2, 16]: 10 | Plant response rating (scale of 0 to 100), Barley, Winter ([2]; Preemergence, 31 g ai/ha): 0 | Plant response rating, Barley, Winter [2, 17]: 0 | Plant response rating, Barley, Winter [2, 18]: 0 | Barley, Winter plant response rating [2, 19]: 0 | Plant response rating, Barley, Winter [2, 20]: 5 | Blackgrass plant response rating [3, 14]: 40 | Plant response rating, Blackgrass [3, 15]: 70 | Plant response rating, Blackgrass [3, 16]: 80 | Plant response rating (scale of 0 to 100), Blackgrass ([3]; Preemergence, 31 g ai/ha): 35 | Plant response rating, Blackgrass [3, 17]: 70 | Plant response rating, Blackgrass [3, 18]: 85 | Blackgrass plant response rating [3, 19]: 90 | Plant response rating, Blackgrass [3, 20]: 50 | Bromegrass, Downy plant response rating [4, 14]: 0 | Plant response rating, Bromegrass, Downy [4, 15]: 10 | Plant response rating, Bromegrass, Downy [4, 16]: 20 | Plant response rating (scale of 0 to 100), Bromegrass, Downy ([4]; Preemergence, 31 g ai/ha): 20 | Plant response rating, Bromegrass, Downy [4, 17]: 25 | Plant response rating, Bromegrass, Downy [4, 18]: 70 | Plant response rating, Bromegrass, Downy [4, 19]: 70 | Plant response rating, Bromegrass, Downy [4, 20]: 10 | Chamomile plant response rating [5, 14]: 65 | Plant response rating, Chamomile [5, 15]: 85 | Plant response rating, Chamomile [5, 16]: 100 | Plant response rating (scale of 0 to 100), Chamomile ([5]; Preemergence, 31 g ai/ha): 95 | Plant response rating, Chamomile [5, 17]: 95 | Plant response rating, Chamomile [5, 18]: 95 | Plant response rating, Chamomile [5, 19]: 90 | Plant response rating, Chamomile [5, 20]: 75 | Chickweed plant response rating [6, 14]: 80 | Plant response rating, Chickweed [6, 15]: 90 | Plant response rating, Chickweed [6, 16]: 100 | Plant response rating (scale of 0 to 100), Chickweed ([6]; Preemergence, 31 g ai/ha): 100 | Plant response rating, Chickweed [6, 17]: 90 | Plant response rating, Chickweed [6, 18]: 100 | Plant response rating, Chickweed [6, 19]: 100 | Plant response rating, Chickweed [6, 20]: 80 | Deadnettle plant response rating [7, 14]: 35 | Plant response rating, Deadnettle [7, 15]: 35 | Plant response rating, Deadnettle [7, 16]: 70 | Plant response rating (scale of 0 to 100), Deadnettle ([7]; Preemergence, 31 g ai/ha): 0 | Plant response rating, Deadnettle [7, 17]: 0 | Plant response rating, Deadnettle [7, 18]: 0 | Plant response rating, Deadnettle [7, 19]: 60 | Plant response rating, Deadnettle [7, 20]: 35 | Field Poppy plant response rating [8, 14]: 95 | Plant response rating, Field Poppy [8, 15]: 100 | Plant response rating, Field Poppy [8, 16]: 95 | Plant response rating (scale of 0 to 100), Field Poppy ([8]; Preemergence, 31 g ai/ha): 95 | Plant response rating, Field Poppy [8, 17]: 95 | Plant response rating, Field Poppy [8, 18]: 95 | Plant response rating, Field Poppy [8, 19]: 95 | Plant response rating, Field Poppy [8, 20]: 95 | Foxtail, Green plant response rating [9, 14]: 50 | Plant response rating, Foxtail, Green [9, 15]: 75 | Plant response rating, Foxtail, Green [9, 16]: 85 | Plant response rating (scale of 0 to 100), Foxtail, Green ([9]; Preemergence, 31 g ai/ha): 10 | Plant response rating, Foxtail, Green [9, 17]: 15 | Plant response rating, Foxtail, Green [9, 18]: 75 | Plant response rating, Foxtail, Green [9, 19]: 100 | Plant response rating, Foxtail, Green [9, 20]: 65 | Lambsquarters plant response rating [10, 14]: 75 | Plant response rating, Lambsquarters [10, 15]: 90 | Plant response rating, Lambsquarters [10, 16]: 100 | Plant response rating (scale of 0 to 100), Lambsquarters ([10]; Preemergence, 31 g ai/ha): 20 | Plant response rating, Lambsquarters [10, 17]: 100 | Plant response rating, Lambsquarters [10, 18]: 100 | Plant response rating, Lambsquarters [10, 19]: 100 | Plant response rating, Lambsquarters [10, 20]: 90 | Ryegrass, Italian plant response rating [11, 14]: 65 | Plant response rating, Ryegrass, Italian [11, 15]: 85 | Plant response rating, Ryegrass, Italian [11, 16]: 85 | Plant response rating (scale of 0 to 100), Ryegrass, Italian ([11]; Preemergence, 31 g ai/ha): 100 | Plant response rating, Ryegrass, Italian [11, 17]: 100 | Plant response rating, Ryegrass, Italian [11, 18]: 100 | Plant response rating, Ryegrass, Italian [11, 19]: 100 | Plant response rating, Ryegrass, Italian [11, 20]: 75 | Wheat, Spring plant response rating [12, 14]: 0 | Plant response rating, Wheat, Spring [12, 15]: 10 | Plant response rating, Wheat, Spring [12, 16]: 15 | Plant response rating (scale of 0 to 100), Wheat, Spring ([12]; Preemergence, 31 g ai/ha): 0 | Plant response rating, Wheat, Spring [12, 17]: 0 | Plant response rating, Wheat, Spring [12, 18]: 0 | Plant response rating, Wheat, Spring [12, 19]: 10 | Plant response rating, Wheat, Spring [12, 20]: 0 | Wheat, Winter plant response rating [13, 14]: 0 | Plant response rating, Wheat, Winter [13, 15]: 0 | Plant response rating, Wheat, Winter [13, 16]: 5 | Plant response rating (scale of 0 to 100), Wheat, Winter ([13]; Preemergence, 31 g ai/ha): 0 | Plant response rating, Wheat, Winter [13, 17]: 0 | Plant response rating, Wheat, Winter [13, 18]: 5 | Plant response rating, Wheat, Winter [13, 19]: 5 | Plant response rating, Wheat, Winter [13, 20]: 0
